Measured values as given in paper PMC3790268 (Bioorganic & medicinal chemistry letters, 2013).

Target: rat nNOS (Rattus norvegicus, UniProt P29476)
Details: compared with (R,R)-16a, (S,S)-16b and (R)-6b

Structure (SMILES): Cc1cc(N)nc(COC[C@@H](N)[C@H](C)OCc2cc(C)cc(N)n2)c1 [(S,R)-16c]
- decreased affinity for nNOS: 10 fold
